From patent US8685924B2, “Preventives/remedies for stress urinary incontinence and method of screening the same” (Takeda Pharmaceutical Company Limited, priority 2004, dated 2014)

Test system: urethane-anesthetized female rats
Assay: Antagonism of the leak point pressure increase by WAY-161503 / WAY-163909, direct bladder compression method (Example 4)
Format: in vivo, rat
Conditions: agonist 0.3 mg/kg, i.v., antagonist: solvent, mean ± SEM
Procedure: SD female rats (body weight 180-350 g) were anesthetized with urethane (Wako Pure Chemical Industries, Ltd.), and halothane (Takeda Pharmaceutical Company Limited) anesthesia was added when necessary during operation.
The spinal cord was transected at T8-9 level to eliminate the reflex voiding. The lower abdomen was incised in the median line, a catheter for intravesical pressure measurement (PE-90, Clay Adams) was inserted into the bladder and secured with a ligature, and the intravesical pressure was measured via a pressure transducer. Urine was emptized in advance by bilaterally pressing the bladder with two swabs, and a 0.1% Evans blue (Merck) solution (0.4 mL) was injected into the bladder. The bladder was gradually compressed bilaterally with two swabs, and the intravesical pressure upon saline leakage from the urethral orifice was measured and defined as a leak point pressure. The measurement of the leak point pressure was repeated, and the average value of the final five stable measures was taken as the value before drug administration. Thereafter, the drug was intravenously administered, the leak point pressure was measured again 20 min later, and the value after the drug administration was determined. DOI, mCPP and eltoprazine were dissolved in saline, and other drugs were dissolved in DMA/PEG400 (1:1), and intravenously administered at 1 ml/kg and 0.5 mg/kg, respectively. Depending on the experiment, RS-102221 or SB221284 (showing serotonin 5-HT2C receptor antagonist activity) was administered, 5 min later, WAY-161503 or WAY-163909 was administered, leak point pressure was measured 10 min later, and a competitive assay with the action of WAY-161503 or WAY-163909 was performed. RS-102221 and SB221284 were both dissolved in DMA/PEG400 (1:1), and intravenously administered at 0.5 ml/kg.

O=C1Nc2cc(Cl)c(Cl)cc2N2CCNCC12 (stereo not drawn) [WAY-161503]
leak point pressure after drug administration: 87.1 ± 4.3 cmH2O | leak point pressure increase: 17.4 ± 1.9 cmH2O | leak point pressure before drug administration (baseline): 69.7 ± 3.9 cmH2O
